Measurements reported in patent US11963962B2, “Platelet count-agnostic methods of treating myelofibrosis” (Sierra Oncology, Inc., priority 2018, dated 2024).

What was measured:
myelofibrosis [1] = test: SIMPLIFY-1 dynamic and time-to-event analyses of RBC transfusions; format: in vivo, human
Source text: The SIMPLIFY-1 (S1) trial, a double-blind, active-controlled Phase 3 study in which 432 patients received randomized treatment with MMB or RUX for 24 weeks was previously reported (Mesa R A, Kiladjian J J, Catalano J V. et al. “Simplify-1: A phase III randomized trial of momelotinib versus ruxolitinib in j anus kinase inhibitor—naïve patients with myelofibrosis”, Journal of Clinical Oncology, 2017; 35:3844-50).
Since transfusion burden is of significant concern to clinicians and patients, to better understand the dynamics of RBC transfusions we further examined the S1 data through statistical models utilizing a variety of novel anemia benefit endpoints including time until transfusion and overall intensity of transfusions across time. The proportions of patients with 0 and 4 transfusions were calculated and time-to-event analyses examining time-to-first and time-to-fifth units transfused also conducted. Since transfusions typically comprise 2 units, the fifth unit transfused represents a de facto third transfusion event. The number of units transfused were also considered to be recurrent events and examined with and without patients' baseline characteristics as covariates. Finally, a mixture model, based on a zero-inflated negative binomial (ZINB) distribution fit to the transfusion data, was employed to compare between the treatment groups the proportions of subjects with zero transfusion burden and the mean transfusion rates.

myelofibrosis [2] = test: SIMPLIFY-2 Phase 3 trial: transfusion independence and TD to TI conversion; format: in vivo, human; settings: for TD to 12w rolling TI Absolute risk difference (Newcombe 95% CI) / TD to W24 TI Absolute risk difference (Newcombe 95% CI) / TI rate Absolute risk difference (Newcombe 95% CI): MMB vs Control
Source text: The improved outcome from MMB therapy that results from practicing the subject methods can be manifested as an improvement in one or more clinical endpoints (e.g., as described herein), such as anemia response, in spleen response and/or symptom response. By “anemia response” is meant an increase in the patient's hemoglobin level or a patient who was transfusion dependent becoming transfusion independent. Desirably, a minimum increase in hemoglobin of 0.5 g/dL, such as 1.0 g/dL 1.5 g/dL or 2.0 g/dL lasting a minimum of 8 weeks is achieved, which is the level of improvement specified in the International Working Group (IWG) consensus criteria. However, smaller, but still medically significant, increases in hemoglobin are also considered to be within the term “anemia response”. “Transfusion independence” is an anemia endpoint and refers to a subject who required no RBC transfusions over a 12 week period and had no hemoglobin levels less than 8 g/dL to 8.5 g/dL over the 12 week period. In some embodiments, the 12 week period of transfusion independence is the terminal 12 weeks of a 24 week study period. By red blood cell (RBC) transfusion independence rate at week 24 of a study is meant the proportion of subjects who were transfusion independent at week 24, excluding cases associated with clinically overt bleeding.
In the SIMPLIFY-2 trial (NCT02101268), the efficacy and safety of MMB was studied in anemic or thrombocytopenic subjects with myelofibrosis who were previously treated with ruxolitinib (RUX). […] Specifically, anemic or thrombocytopenic myelofibrosis patients who had and were previously treated with (RUX) (for at least 28 days) were studied over 24 weeks for response to MMB versus best available treatment (BAT), primarily RUX (89% of patients) but alternatively no treatment or other standard interventions, after which period all patients could receive extended MMB treatment. Previously treated RUX patients who either required red blood cell transfusions or RUX dose reduction with grade 3 thrombocytopenia, anemia, and/or bleeding at grade 3 or worse, with palpable spleen of at least 5 cm and without grade 2 or greater peripheral neuropathy were included in the trial. There was no lower limit for the required baseline platelet count. The primary endpoint was a reduction by at least 35% in the spleen volume at 24 weeks compared with baseline.
FIG. 8A: SIMPLIFY-1 study of MMB in a first line population previously untreated with JAKi. For SIMPLIFY-1, the goal was non-inferiority over ruxolitinib (RUX) (MMB: N=215 subjects, and RUX: N=217 subjects). FIG. 8B: SIMPLIFY-2 study of second line population of anemic or thrombocytopenic subjects previously treated with RUX (red blood cell (RBC) transfusions on RUX=64%. RUX dose adjustment for: thrombocytopenia=21%; anemia/hematoma=35%). For SIMPLIFY-2, the goal was superiority over best available treatment (BAT) (MMB: N=104 subjects, and BAT: N=52 subjects). In both SIMPLIFY-1 and SIMPLIFY: Primary endpoint: >=35% reduction in spleen volume at 24 weeks. Secondary endpoints: Total symptom score (TSS) response at 24 weeks. Effects on RBC transfusion requirements.
The SIMPLIFY 2 clinical trial data was reanalyzed for subgroups of subjects having particular baseline platelet counts in the MMB versus BAT arms of the study.
Patient data was analyzed according to the following baseline platelet count (PLT) subgroups and in particular according to a threshold PLT of 150×10^9/L: 1) PLT<50×10^9/L; 2) 50×10^9/L≤PLT<100×10^9/L; 3) 100×10^9/L≤PLT<150×10^9/L. The reanalyzed data is presented in Table 14 (SIMPLIFY 2).

[3] = SIMPLIFY-1, 24 week randomized treatment period
[4] = SIMPLIFY 2, 50 ≤ PLT < 100 ×10^9/L
[5] = SIMPLIFY 2, 100 ≤ PLT < 150 ×10^9/L
[6] = SIMPLIFY-2, switch from Transfusion Dependent to Independent

Cl.N#CCNC(=O)c1ccc(-c2ccnc(Nc3ccc(N4CCOCC4)cc3)n2)cc1 [MMB, N-(cyanomethyl)-4-(2-(4-morpholinophenylamino)pyrimidin-4-yl)benzamide]
Kaplan-Meier estimate of the proportion of patients who did not require any units transfused (myelofibrosis [1]; [3]): 73% | proportion of patients requiring 4 or fewer units (myelofibrosis [1]; [3]): 83% | factor of increase of the odds of having zero units transfused (myelofibrosis [1]; SIMPLIFY-1, first 24 weeks, ZINB covariate model, MMB vs RUX): 9.3 | hazard ratio, units transfused as recurrent events (myelofibrosis [1]; SIMPLIFY-1, MMB vs RUX, models with and without baseline covariates): 0.522 | patients TI at week 24 (myelofibrosis [2]; SIMPLIFY 2): 43% | transfusion dependent (TD) patients at baseline who were TI at week 24 (myelofibrosis [2]; SIMPLIFY 2): 32.8% | TD to 12w rolling TI Responders (myelofibrosis [2]; [4]): 7 | TD to 12w rolling TI proportion (Wilson 95% CI) (myelofibrosis [2]; [4]): 0.54 | TD to W24 TI Responders (myelofibrosis [2]; [4]): 6 | TD to W24 TI proportion (Wilson 95% CI) (myelofibrosis [2]; [4]): 0.46 | TI rate Responders (myelofibrosis [2]; [4]): 18 | TI rate proportion (Wilson 95% CI) (myelofibrosis [2]; [4]): 0.55 | TD to 12w rolling TI Absolute risk difference (Newcombe 95% CI) (myelofibrosis [2]; [4]): 0.27 | TD to W24 TI Absolute risk difference (Newcombe 95% CI) (myelofibrosis [2]; [4]): 0.37 | TI rate Absolute risk difference (Newcombe 95% CI) (myelofibrosis [2]; [4]): 0.15 | TD to 12w rolling TI Responders (myelofibrosis [2]; [5]): 3 | TD to 12w rolling TI proportion (Wilson 95% CI) (myelofibrosis [2]; [5]): 0.23 | TD to W24 TI Responders (myelofibrosis [2]; [5]): 4 | TD to W24 TI proportion (Wilson 95% CI) (myelofibrosis [2]; [5]): 0.31 | TI rate Responders (myelofibrosis [2]; [5]): 10 | TI rate proportion (Wilson 95% CI) (myelofibrosis [2]; [5]): 0.42 | TD to 12w rolling TI Absolute risk difference (Newcombe 95% CI) (myelofibrosis [2]; [5]): 0.03 | TD to W24 TI Absolute risk difference (Newcombe 95% CI) (myelofibrosis [2]; [5]): 0.31 | TI rate Absolute risk difference (Newcombe 95% CI) (myelofibrosis [2]; [5]): 0.42 | TD to 12w rolling TI Responders (myelofibrosis [2]; SIMPLIFY 2, ITT): 24 | TD to 12w rolling TI proportion (Wilson 95% CI) (myelofibrosis [2]; SIMPLIFY 2, ITT): 0.41 | TD to W24 TI Responders (myelofibrosis [2]; SIMPLIFY 2, ITT): 19 | TD to W24 TI proportion (Wilson 95% CI) (myelofibrosis [2]; SIMPLIFY 2, ITT): 0.33 | TI rate Responders (myelofibrosis [2]; SIMPLIFY 2, ITT): 45 | TI rate proportion (Wilson 95% CI) (myelofibrosis [2]; SIMPLIFY 2, ITT): 0.43 | TD to 12w rolling TI Absolute risk difference (Newcombe 95% CI) (myelofibrosis [2]; SIMPLIFY 2, ITT): 0.23 | TD to W24 TI Absolute risk difference (Newcombe 95% CI) (myelofibrosis [2]; SIMPLIFY 2, ITT): 0.29 | TI rate Absolute risk difference (Newcombe 95% CI) (myelofibrosis [2]; SIMPLIFY 2, ITT): 0.22 | TD to 12w rolling TI Responders (myelofibrosis [2]; SIMPLIFY 2, PLT < 50 ×10^9/L): 3 | TD to 12w rolling TI proportion (Wilson 95% CI) (myelofibrosis [2]; SIMPLIFY 2, PLT < 50 ×10^9/L): 0.50 | TD to W24 TI Responders (myelofibrosis [2]; SIMPLIFY 2, PLT < 50 ×10^9/L): 2 | TD to W24 TI proportion (Wilson 95% CI) (myelofibrosis [2]; SIMPLIFY 2, PLT < 50 ×10^9/L): 0.33 | TI rate Responders (myelofibrosis [2]; SIMPLIFY 2, PLT < 50 ×10^9/L): 2 | TI rate proportion (Wilson 95% CI) (myelofibrosis [2]; SIMPLIFY 2, PLT < 50 ×10^9/L): 0.22 | TD to 12w rolling TI Absolute risk difference (Newcombe 95% CI) (myelofibrosis [2]; SIMPLIFY 2, PLT < 50 ×10^9/L): 0.50 | TD to W24 TI Absolute risk difference (Newcombe 95% CI) (myelofibrosis [2]; SIMPLIFY 2, PLT < 50 ×10^9/L): 0.33 | TI rate Absolute risk difference (Newcombe 95% CI) (myelofibrosis [2]; SIMPLIFY 2, PLT < 50 ×10^9/L): 0.22 | transfusion dependence to independence conversion rate at week 24 (myelofibrosis [2]; SIMPLIFY 2, baseline platelet count subgroup 3 (100 to 150×10^9/L)): 46% | ≥8 week transfusion independence rate (myelofibrosis [2]; [6]): 46.6% | ≥12 week transfusion independence rate (myelofibrosis [2]; [6]): 46.6%
